Results published in US9605005B2, “Alkynyl alcohols and methods of use” (Genentech, Inc., priority 2013, dated 2017).

These compounds were tested on REL-A (p65) nuclear translocation, HeLa cells (assay: REL-A (p65) nuclear translocation assay in HeLa cells (classical NF-kB signaling, TNF-α stimulated)). Conditions: Homo sapiens, 0.5 h; HeLa cells, 10 ng/mL TNF-α for 30 minutes; read-out: REL-A HeLa Transloc Assay (IC50).
Format: cell-based
Procedure: (§1) Several assays were developed to profile the cellular activities of NIK inhibitors.
(§2) (2) A second set of cell assay are used to define the selectivity of NIK inhibitors toward inhibition of classical vs. non-classical NF-kB signaling and rely on quantification of the nuclear translocation of p52 (NF-kB2) and REL-A (p65) using high content cellular imaging. For the p52 (non-classical NF-kB signaling) nuclear translocation assay, HeLa cells are treated with different concentrations of compounds (0.2% DMSO final) in medium containing 10% fetal bovine serum and then stimulated with 100 ng/mL of an anti-lymphotoxin beta receptor antibody (R&D Systems) for 5 hours. In the REL-A nuclear translocation assay, HeLa cells are incubated with compounds (0.2% DMSO final) for 4.5 hours in medium containing 10% fetal bovine serum before stimulating them with 10 ng/mL tumor necrosis factor (TNF)-α (R&D Systems) for 30 minutes. Cells are fixed with 4% paraformaldehyde, permeabilized by adding 0.1% Triton X-100 in phosphate buffered saline, and then are incubated with either 2 ug/mL anti-p52 antibody (Millipore) or 400 ng/mL anti-REL-A (p65) antibody (Santa Cruz Biotechnology). Finally, the cells are incubated with an Alexa488-labeled secondary antibody (Invitrogen) and DRAQ5 DNA stain (Biostatus). Imaging is carried out using an Opera reader (Perkin Elmer) and data are analyzed with the aid of Acapella software (Perkin Elmer). The p52 or REL-Atranslocation into the nucleus is quantified by the ratio of the nuclear to cytoplasmic signal intensity. […] The compounds in listed in Table 1 have the corresponding inhibitory value (IC50 in micromolar) for NIK p52 Translocation Assay as set forth in Table 2.
(§3) The compounds in listed in Table 1 have the corresponding inhibitory values (IC50 in micromolar) for the Translocation Assays as set forth in Table 2.

Question: Which IC50 does the source give for CN1CC[C@@](O)(C#Cc2ccnc(-n3nc(C(N)=O)c4ccccc43)c2)C1=O [Compound 52, 1-[4-[2-[(3R)-3-hydroxy-1-methyl-2-oxo-pyrrolidin-3-yl]ethynyl]-2-pyridyl]indazole-3-carboxamide] here?
Answer: 20000 nM

Question: Which IC50 does the source give for COc1ccc2c(-c3cccc(C#C[C@]4(O)CCN(C)C4=O)c3)nc(C(N)=O)n2c1 [Compound 98, 1-[3-[2-[(3R)-3-hydroxy-1-methyl-2-oxo-pyrrolidin-3-yl]ethynyl]phenyl]-6-methoxy-imidazo[1,5-a]pyridine-3-carboxamide] here?
Answer: 6320 nM

Question: CN1CC[C@@](O)(C#Cc2ccnc(-n3nc(C(N)=O)c4cc(F)ccc43)c2)C1=O [Compound 54, 5-fluoro-1-[4-[2-[(3R)-3-hy-droxy-1-methyl-2-oxo-pyrroli-din-3-yl]ethynyl]-2-pyri-diyl]indazole-3-carboxamide] was tested. Which IC50 did it give?
Answer: 2000 nM

Question: For COc1cnc2c(c1)c(C(N)=O)nn2-c1cccc(C#C[C@]2(O)CCN(C)C2=O)c1 [Compound 74, 1-[3-[2-[(3R)-3-hydroxy-1-methyl-2-oxo-pyrrolidin-3-yl]ethynyl]phenyl]-5-methoxy-pyrazolo[3,4-b]pyridine-3-carboxamide], which IC50 is on record?
Answer: 8000 nM

Question: For CN1CC[C@@](O)(C#Cc2ccnc(-n3nc(C(N)=O)c4c3CCCC4)c2)C1=O [Compound 51, 1-[4-[2-[(3R)-3-hydroxy-1-methyl-2-oxo-pyrrolidin-3-yl]ethynyl]-2-pyridyl]-4,5,6,7-tetrahydroindazole-3-carbox-amide], which IC50 is on record?
Answer: 7190 nM

These compounds were tested against nuclear factor-kappa B (NF-kB)-inducing kinase (NIK) (Homo sapiens (Human), UniProt Q99558) (assay: NIK enzyme inhibition assay (Transcreener ADP, NIK ADP-FP)). Conditions: purified NIK 0.5 nM, 10 μM ATP, fluorescence polarization; read-out: NIK ADP-FP (Ki μM).
Chain of nuclear factor-kappa B (NF-kB)-inducing kinase (NIK) (Q99558 whole entry): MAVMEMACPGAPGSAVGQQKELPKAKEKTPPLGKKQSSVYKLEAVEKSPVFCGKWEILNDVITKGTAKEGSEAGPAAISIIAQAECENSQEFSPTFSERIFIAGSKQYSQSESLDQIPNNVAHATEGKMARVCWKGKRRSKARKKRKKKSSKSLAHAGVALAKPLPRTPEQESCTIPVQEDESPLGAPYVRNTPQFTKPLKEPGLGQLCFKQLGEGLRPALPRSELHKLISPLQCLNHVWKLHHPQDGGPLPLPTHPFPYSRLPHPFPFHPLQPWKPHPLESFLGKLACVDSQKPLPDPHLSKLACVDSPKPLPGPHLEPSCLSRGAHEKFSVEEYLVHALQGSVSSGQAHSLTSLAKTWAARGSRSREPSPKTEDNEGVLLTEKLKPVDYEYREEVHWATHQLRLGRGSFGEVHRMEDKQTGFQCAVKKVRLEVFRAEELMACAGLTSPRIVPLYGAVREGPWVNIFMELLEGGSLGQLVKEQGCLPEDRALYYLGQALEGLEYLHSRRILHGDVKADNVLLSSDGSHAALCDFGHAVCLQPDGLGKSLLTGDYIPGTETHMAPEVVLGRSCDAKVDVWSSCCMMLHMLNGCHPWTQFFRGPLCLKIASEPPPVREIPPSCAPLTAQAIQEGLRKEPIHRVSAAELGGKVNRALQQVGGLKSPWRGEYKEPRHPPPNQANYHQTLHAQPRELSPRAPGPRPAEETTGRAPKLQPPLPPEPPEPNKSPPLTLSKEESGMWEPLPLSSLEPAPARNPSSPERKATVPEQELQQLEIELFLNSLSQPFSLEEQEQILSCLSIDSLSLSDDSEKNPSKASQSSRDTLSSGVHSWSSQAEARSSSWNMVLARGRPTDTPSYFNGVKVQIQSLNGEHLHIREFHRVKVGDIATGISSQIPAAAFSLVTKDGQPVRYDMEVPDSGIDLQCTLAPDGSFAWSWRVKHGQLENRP
Format: biochemical

Question: With Cc1nc([C@](C)(O)C#Cc2cccc(-n3nc(C(N)=O)c4ccccc43)c2)no1 [Compound 29, 1-[3-[(3R)-3-hydroxy-3-(5-methyl-1,2,4-oxadiazol-3-yl)but-1-ynyl]phenyl]indazole-3-carboxamide] as the compound, how does the Ki read?
Answer: 36.7 nM

Question: Which Ki does the source give for CN1CC[C@@](O)(C#Cc2cccc(-n3nc(C(N)=O)c4c3CCC(=O)N4)c2)C1=O [Compound 180, 1-[3-[2-[(3R)-3-hydroxy-1-methyl-2-oxo-pyrrolidin-3-yl]ethynyl]phenyl]-5-oxo-6,7-dihydro-4H-pyrazolo [4,3-b]pyridine-3-carboxamide] here?
Answer: 0.35 nM

Question: With CN1CC[C@@](O)(C#Cc2cccc(-n3nc(C(N)=O)c4c3CCN(CC(C)(C)O)C4)c2)C1=O [Compound 40, 1-[3-[2-[(3R)-3-hydroxy-1-methyl-2-oxo-pyrrolidin-3-yl]ethynyl]phenyl]-5-(2-hy-droxy-2-methyl-propyl)-6,7-dihydro-4H-pyrazolo[4,3-c]pyridine-3-carboxamide] as the compound, how does the Ki read?
Answer: 71 nM

Question: Which Ki does the source give for CN1CC[C@@](O)(C#Cc2cccc(-n3nc(C(N)=O)c4cccc(F)c43)c2)C1=O [Compound 176, 7-fluoro-1-[3-[2-[(3R)-3-hydroxy-1-methyl-2-oxo-pyrrolidin-3-yl]ethynyl]phenyl] indazole-3-carboxamide] here?
Answer: 1.27 nM

Question: For CN1CC[C@@](O)(C#Cc2ccnc(-n3nc(C(N)=O)c4c3CCC[C@@H]4NC(=O)C3CC3)c2)C1=O [Compound 17, (4S)-4-(cyclopropanecarbo-nylamino)-1-[4-[2-[(3R)-3-hydroxy-1-methyl-2-oxo-pyrrolidin-3-yl]ethynyl]-2-pyridyl]-4,5,6,7-tetrahydroin-dazole-3-carboxamide], which Ki is on record?
Answer: 146 nM

Question: How did the Ki turn out when CN1CC[C@@](O)(C#Cc2cccc(-n3nc(C(N)=O)c4cnc(N5CC[C@H](O)C5)cc43)c2)C1=O [Compound 139, 1-[3-[2-[(3R)-3-hydroxy-1-methyl-2-oxo-pyrrolidin-3-yl]ethynyl]phenyl]-6-[(3S)-3-hydroxypyrrolidin-1-yl]pyra-zolo[4,3-c]pyridine-3-carbox-amide] was run?
Answer: 0.39 nM

Question: How did the Ki turn out when Cc1cc(C(N)=O)nn1-c1cc(C#C[C@]2(O)CCN(C)C2=O)ccn1 [Compound 79, 1-[4-[2-[(3R)-3-hydroxy-1-methyl-2-oxo-pyrrolidin-3-yl]ethynyl]-2-pyridyl]-5-meth-yl-pyrazole-3-carboxamide] was run?
Answer: 10.8 nM

Question: Which Ki does the source give for CN1CC[C@@](O)(C#Cc2ccnc(-n3nc(C(N)=O)c4c3CCC[C@H]4NC(=O)C3CC3)c2)C1=O [Compound 15, (4R)-4-(cyclopropanecarbo-nylamino)-1-[4-[2-[(3R)-3-hydroxy-1-methyl-2-oxo-pyrrolidin-3-yl]ethynyl]-2-pyridyl]-4,5,6,7-tetrahydroinda-zole-3-carboxamide] here?
Answer: 382 nM

Question: NC(=O)c1nn(-c2cccc(C#C[C@@]3(O)CCOC3=O)c2)c2ccccc12 [Compound 172, 1-[3-[2-[(3)S-3-hydroxy-2-oxo-tetrahydrofuran-3-yl]eth-ynyl]phenyl]indazole-3-carbox-amide] was tested. Which Ki did it give?
Answer: 473 nM

Question: CN1CC[C@@](O)(C#Cc2ccc(F)c(-n3nc(C(N)=O)c4c3COC4)c2)C1=O [Compound 191, 1-[2-fluoro-5-[2-[(3R)-3-hydroxy-1-methyl-2-oxo-pyrrolidin-3-yl]ethynyl]phenyl]-4,6-dihydrofuro[3,4-c] pyrazole-3-carboxamide] was tested. Which Ki did it give?
Answer: 1.11 nM

Question: Which Ki does the source give for CN1CC[C@@](O)(C#Cc2cccc(-n3nc(C(N)=O)c4cnc(N5CC[C@@H](O)C5)cc43)c2)C1=O [Compound 138, 1-[3-[2-[(3R)-3-hydroxy-1-methyl-2-oxo-pyrrolidin-3-yl]ethynyl]phenyl]-6-[(3R)-3-hydroxypyrrolidin-1-yl]pyra-zolo[4,3-c]pyridine-3-carbox-amide] here?
Answer: 0.19 nM

Question: For NC(=O)c1nn(-c2cccc(C#C[C@@]3(O)CCCC3=O)c2)c2ccccc12 [Compound 115, 1-[3-[2-[(1S)-1-hydroxy-2-oxo-cyclopentyl]ethynyl]phe-nyl]indazole-3-carboxamide], which Ki is on record?
Answer: 86.1 nM

Question: With C[C@@H]1Cc2c(C(N)=O)nn(-c3cccc(C#C[C@]4(O)CCN(C)C4=O)c3)c2C1 [Compound 194, (5R)-1-[3-[2-[(3R)-3-hydroxy-1-methyl-2-oxo-pyrrolidin-3-yl]ethynyl]phenyl]-5-methyl-5,6-dihydro-4H-cyclopenta[c]pyrazole-3-carboxamide] as the compound, how does the Ki read?
Answer: 0.05 nM

Question: Which Ki does the source give for CN1CC[C@@](O)(C#Cc2cccc(-n3nc(C(N)=O)c4c3CCCC4(F)F)c2)C1=O [Compound 24, 4,4-difluoro-1-[3-[2-[(3R)-3-hydroxy-1-methyl-2-oxo-pyrrolidin-3-yl]ethynyl]phe-nyl]-6,7-dihydro-5H-indazole-3-carboxamide] here?
Answer: 7.62 nM

Question: COC1CN(c2cnc3c(c2)c(C(N)=O)nn3-c2cccc(C#C[C@]3(O)CCN(C)C3=O)c2)C1 [Compound 183, 1-[3-[2-[(3R)-3-hydroxy-1-methyl-2-oxo-pyrrolidin-3-yl]ethynyl]phenyl]-5-(3-methoxyazetidin-1-yl) pyrazolo[3,4-b]pyridine-3-carboxamide] was tested. Which Ki did it give?
Answer: 0.19 nM

Question: How did the Ki turn out when C[C@H]1Cc2c(C(N)=O)nn(-c3cccc(C#C[C@]4(O)CCN(C)C4=O)c3)c2C1 [Compound 193, (5S)-1-[3-[2-[(3R)-3-hydroxy-1-methyl-2-oxo-pyrrolidin-3-yl]ethynyl]phenyl]-5-methyl-5,6-dihydro-4H-cyclopenta[c]pyrazole-3-carboxamide] was run?
Answer: 0.1 nM

Question: How did the Ki turn out when CN1CC[C@@](O)(C#Cc2cccc(-n3nc(C(N)=O)c4cc(CN5CCCC5)ccc43)c2)C1=O [Compound 48, 1-[3-[2-[(3R)-3-hydroxy-1-methyl-2-oxo-pyrrolidin-3-yl]ethynyl]phenyl]-5-(pyrro-lidine-1-ylmethyl)indazole-3-carboxamide] was run?
Answer: 64.7 nM

Question: For CN1CC[C@@](O)(C#Cc2cccc(-n3nc(C(N)=O)c4c3C[C@@]3(C)C(C4)C3(F)F)c2)C1=O (stereo partly drawn) [Compound 47, (5aS)-5,5-difluoro-1-[3-[2-[(3R)-3-hydroxy-1-methyl-2-oxo-pyrrolidin-3-yl]ethyn-yl]phenyl]-5a-methyl-4a,6-dihydro-4H-cyclopropa[f] indazole-3-carboxamide], which Ki is on record?
Answer: 22.6 nM

Question: For NC(=O)c1nn(-c2cccc(C#C[C@]3(O)CCOC3=O)c2)c2ccccc12 [Compound 171, 1-[3-[2-[(3R)-3-hydroxy-2-oxo-tetrahydrofuran-3-yl]eth-ynyl]phenyl]indazole-3-carbox-amide], which Ki is on record?
Answer: 8.12 nM

Question: For Cc1cn(-c2ccc3c(c2)c(C(N)=O)nn3-c2cccc(C#C[C@]3(O)CCN(C)C3=O)c2)cn1 [Compound 106, 1-[3-[2-[(3R)-3-hydroxy-1-methyl-2-oxo-pyrrolidin-3-yl]ethynyl]phenyl]-5-(4-meth-ylimidazol-1-yl)indazole-3-carboxamide], which Ki is on record?
Answer: 0.05 nM

Question: CN1CC[C@@](O)(C#Cc2cccc(-n3nc(C(N)=O)c4c3CCC[C@@H]4NC(=O)C3CC3)c2)C1=O [Compound 37, (4S)-4-(cyclopropanecarbo-nylamino)-1-[3-[2-[(3R)-3-hydroxy-1-methyl-2-oxo-pyrrolidin-3-yl]ethynyl]phen-yl]-4,5,6,7-tetrahydroindazole-3-carboxamide] was tested. Which Ki did it give?
Answer: 193 nM

What follows are compounds tested on p52 (NF-kB2) nuclear translocation, HeLa cells (assay: p52 (NF-kB2) nuclear translocation assay in HeLa cells (non-classical NF-kB signaling, anti-lymphotoxin beta receptor antibody stimulated)). Conditions: Homo sapiens, 100 ng/mL anti-lymphotoxin beta receptor antibody for 5 hours, read-out: p52 HeLa Transloc Assay (IC50).
Format: cell-based
Procedure: as §1, §2, §3

Question: For CN1CC[C@@](O)(C#Cc2ccnc(-n3nc(C(N)=O)c4ccccc43)c2)C1=O [Compound 52, 1-[4-[2-[(3R)-3-hydroxy-1-methyl-2-oxo-pyrrolidin-3-yl]ethynyl]-2-pyridyl]indazole-3-carboxamide], which IC50 is on record?
Answer: 22.8 nM

Question: COc1ccc2c(-c3cccc(C#C[C@]4(O)CCN(C)C4=O)c3)nc(C(N)=O)n2c1 [Compound 98, 1-[3-[2-[(3R)-3-hydroxy-1-methyl-2-oxo-pyrrolidin-3-yl]ethynyl]phenyl]-6-methoxy-imidazo[1,5-a]pyridine-3-carboxamide] was tested. Which IC50 did it give?
Answer: 17 nM

Question: Which IC50 does the source give for CN1CC[C@@](O)(C#Cc2ccnc(-n3nc(C(N)=O)c4cc(F)ccc43)c2)C1=O [Compound 54, 5-fluoro-1-[4-[2-[(3R)-3-hy-droxy-1-methyl-2-oxo-pyrroli-din-3-yl]ethynyl]-2-pyri-diyl]indazole-3-carboxamide] here?
Answer: 39 nM

Question: Which IC50 does the source give for COc1cnc2c(c1)c(C(N)=O)nn2-c1cccc(C#C[C@]2(O)CCN(C)C2=O)c1 [Compound 74, 1-[3-[2-[(3R)-3-hydroxy-1-methyl-2-oxo-pyrrolidin-3-yl]ethynyl]phenyl]-5-methoxy-pyrazolo[3,4-b]pyridine-3-carboxamide] here?
Answer: 13.9 nM

Question: Which IC50 does the source give for CN1CC[C@@](O)(C#Cc2ccnc(-n3nc(C(N)=O)c4c3CCCC4)c2)C1=O [Compound 51, 1-[4-[2-[(3R)-3-hydroxy-1-methyl-2-oxo-pyrrolidin-3-yl]ethynyl]-2-pyridyl]-4,5,6,7-tetrahydroindazole-3-carbox-amide] here?
Answer: 225 nM
